Here are results for 10 compounds from PubChem BioAssay (NCI).

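Five concentrations, 48 hours, 96-well plates. Here, GI50 denotes the concentration required for 50% inhibition of growth. The concentration for full growth arrest is given as TGI.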

Some test systems named below: SF-539 CNS; ACHN renal; CAKI-1 renal; HL-60(TB) leukemia; SF-295 CNS; LOX IMVI melanoma; OVCAR-3 ovarian; SK-MEL-5 melanoma; SF-268 CNS; HT29 colon.
Holding throughout (test): NCI tumour cell line growth inhibition, 48 h

`Cc1c(C(=O)N/N=C/c2ccc(O)cc2)nnn1-c1ccnc2c(C(F)(F)F)cccc12`: the GI50 with SF-539 CNS was 42 µM; with ACHN renal it was 41.1 µM; with CAKI-1 renal, > 100 µM; with HL-60(TB) leukemia, > 100 µM; in the test on SF-295 CNS it was 22 µM; in the test with LOX IMVI melanoma, 46.8 µM. Besides, the GI50 in the test on OVCAR-3 ovarian is > 100 µM; in the test with SK-MEL-5 melanoma, > 100 µM; in the test on SF-268 CNS, 64.4 µM. The TGI with SF-539 CNS, with ACHN renal, in the test with CAKI-1 renal, with HL-60(TB) leukemia, in the test on SF-295 CNS and in the test on LOX IMVI melanoma was > 100 µM throughout. For the same compound, the TGI in the test on OVCAR-3 ovarian, in the test on SK-MEL-5 melanoma and with SF-268 CNS was > 100 µM in each case.
Consider `CCOC(=O)Oc1c(OC)cc(C(=O)c2ccc(OC)c(OC(=O)CCl)c2OC)cc1OC`, for which the GI50 with HT29 colon was 3.15 µM; with SF-539 CNS, 0.805 µM; in the test on ACHN renal, 3.66 µM; in the test on CAKI-1 renal, 3.76 µM; in the test with SF-295 CNS, 0.886 µM; with LOX IMVI melanoma it was 0.677 µM. The GI50 was 0.414 µM with OVCAR-3 ovarian, 0.475 µM in the test with SK-MEL-5 melanoma and 10.7 µM in the test on SF-268 CNS. The TGI with HT29 colon was 18.8 µM; with SF-539 CNS, 6.38 µM; in the test with ACHN renal it was > 100 µM; in the test on CAKI-1 renal it was > 100 µM; with SF-295 CNS, 33.7 µM; in the test with LOX IMVI melanoma it was > 100 µM. Besides, the TGI in the test with OVCAR-3 ovarian is 23 µM; with SK-MEL-5 melanoma, 14.9 µM; with SF-268 CNS it was > 100 µM.
As for `COc1cc(-c2cc(C(=O)Nc3nc4ccccc4s3)nc3cc(-c4ccccc4)nn23)cc(OC)c1OC`, the GI50 in the test with SF-539 CNS was 1.31 µM; with ACHN renal, 45.7 µM; in the test on CAKI-1 renal it was 53.7 µM; in the test with SF-295 CNS, 10.6 µM; in the test with LOX IMVI melanoma it was 5.57 µM; in the test with OVCAR-3 ovarian it was 13.3 µM. The GI50 in the test with SK-MEL-5 melanoma is 13.8 µM; in the test on SF-268 CNS, 4.5 µM. In addition, the TGI in the test on SF-539 CNS is 9.09 µM; in the test with ACHN renal, > 100 µM; in the test with CAKI-1 renal, > 100 µM; with SF-295 CNS, 32.7 µM; with LOX IMVI melanoma, > 100 µM; in the test on OVCAR-3 ovarian, 52.1 µM. Moreover, the TGI in the test with SK-MEL-5 melanoma was > 100 µM; with SF-268 CNS it was 48.8 µM.
On to `COC(=O)C/C(C)=C/[C@@H](O)[C@H]1O[C@@H]2CC/C(Cl)=C/C/C=C(/C)[C@H](OC(C)=O)CC(=O)O[C@@H]1C2`, for which the GI50 was 1.26 µM with HT29 colon; 1.32 µM with SF-539 CNS; 1.16 µM with ACHN renal; 1.8 µM with HL-60(TB) leukemia; 1.97 µM with LOX IMVI melanoma; 0.875 µM with SK-MEL-5 melanoma. For the same compound, the GI50 in the test with SF-268 CNS is 1.07 µM. Further, the TGI in the test with HT29 colon was > 25 µM; in the test with SF-539 CNS, 7.95 µM; in the test on ACHN renal, 4.51 µM; with HL-60(TB) leukemia it was 11.9 µM; with LOX IMVI melanoma, 11.2 µM; in the test with SK-MEL-5 melanoma it was 3.42 µM. In the test on SF-268 CNS, this compound gave a TGI of 4.61 µM.
With `COC(=O)/C=C1\SC(=Nc2ccc(C(F)(F)F)cc2)N(CCc2c[nH]c3ccccc23)C1=O`, the GI50 in the test with HT29 colon is 1.86 µM; in the test with SF-539 CNS, 1.62 µM; in the test on ACHN renal, 1.56 µM; in the test with HL-60(TB) leukemia, 1.23 µM; in the test with SF-295 CNS, 1.57 µM; in the test with LOX IMVI melanoma, 1.49 µM. For the same compound, the GI50 in the test with OVCAR-3 ovarian is 1.5 µM; in the test on SK-MEL-5 melanoma it was 1.69 µM; in the test on SF-268 CNS, 1.78 µM. For the same compound, the TGI in the test with HT29 colon stood at 4.56 µM; in the test with SF-539 CNS, 3.02 µM; with ACHN renal it was 2.9 µM; with HL-60(TB) leukemia, 3.98 µM; in the test on SF-295 CNS it was 2.95 µM; with LOX IMVI melanoma, 2.81 µM. In addition, the TGI was found to be 2.9 µM in the test on OVCAR-3 ovarian, 3.06 µM with SK-MEL-5 melanoma and 3.67 µM in the test on SF-268 CNS.
With `COc1cccc(/C=C\c2cc(OC)c(OC)c(OC)c2)c1`, the TGI in the test on HT29 colon is 67.9 µM; with SF-539 CNS, > 100 µM; with ACHN renal, > 100 µM; in the test on CAKI-1 renal, 56.4 µM; with OVCAR-3 ovarian, 79.1 µM; in the test on SF-268 CNS, > 100 µM.
For `CC1=C(C(=O)Nc2ccc(F)c(Cl)c2)C(c2cccc(O)c2)NC(=S)N1` (stereo unspecified), the GI50 in the test on ACHN renal is 24.5 µM; in the test with CAKI-1 renal, > 50 µM; in the test on HL-60(TB) leukemia, 25.8 µM; in the test on SF-295 CNS, 18 µM; in the test on LOX IMVI melanoma, 13.7 µM; in the test with OVCAR-3 ovarian, 17.9 µM. Also, the GI50 in the test with SK-MEL-5 melanoma is 11.2 µM; with SF-268 CNS it was 17.8 µM. For the same compound, the TGI with ACHN renal was > 50 µM; with CAKI-1 renal, > 50 µM; in the test with HL-60(TB) leukemia, > 50 µM; in the test on SF-295 CNS it was > 50 µM; in the test with LOX IMVI melanoma, 41 µM; with OVCAR-3 ovarian, > 50 µM. Moreover, the TGI in the test on SK-MEL-5 melanoma is 40.3 µM; in the test with SF-268 CNS, > 50 µM.
As for `COc1ccc(-n2c(-c3ccc(NC(=O)CCCl)cc3)nnc2-c2cc(OC)c(OC)c(OC)c2)cc1`, the GI50 was 3.03 µM with HT29 colon; 3.04 µM in the test on SF-539 CNS; 2.21 µM in the test with ACHN renal; 1.9 µM in the test with HL-60(TB) leukemia; 5.02 µM in the test on SF-295 CNS; 4.28 µM in the test with LOX IMVI melanoma. Besides, the GI50 is 2.58 µM in the test on OVCAR-3 ovarian, 3.46 µM in the test on SK-MEL-5 melanoma and 4.09 µM in the test on SF-268 CNS. For the same compound, the TGI with HT29 colon was 11.2 µM; with SF-539 CNS, 10.3 µM; in the test on ACHN renal, 8.4 µM; with HL-60(TB) leukemia, 6.02 µM; in the test on SF-295 CNS it was > 14.3 µM; in the test with LOX IMVI melanoma, > 14.3 µM. The TGI is 7.78 µM with OVCAR-3 ovarian, 10.3 µM in the test on SK-MEL-5 melanoma and > 14.3 µM with SF-268 CNS.
Consider `O=C(Nc1ccccc1)O/N=C1/CCCC/C1=C\c1ccccc1`, for which the TGI came to 95.1 µM in the test with HT29 colon; 31.7 µM with SF-539 CNS; 30.5 µM with ACHN renal; 29.2 µM in the test on CAKI-1 renal; 29.9 µM with SF-295 CNS; 34 µM in the test on LOX IMVI melanoma. Further, the results for the TGI in the test on OVCAR-3 ovarian, with SK-MEL-5 melanoma and in the test with SF-268 CNS were 28.5 µM, 25.6 µM and 32.8 µM, respectively.
As for `O=C(Nc1cccc(C2=NCCN2)c1)c1ccc(OCCCOc2ccc(C(=O)Nc3cccc(C4=NCCN4)c3)cc2)cc1`, the GI50 in the test on ACHN renal is 21.8 µM; in the test with CAKI-1 renal, 4.67 µM; in the test with HL-60(TB) leukemia, 2.3 µM; in the test with SF-295 CNS, 3.29 µM. For the same compound, the TGI in the test on ACHN renal is > 100 µM; with CAKI-1 renal, 84.6 µM; in the test with HL-60(TB) leukemia it was > 100 µM; in the test with SF-295 CNS it was > 100 µM.
